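Tested at 5 concentrations; 48 h exposure; 96-well plates; endpoints linearly interpolated, else capped at highest concentration. The concentration for 50% growth inhibition is given as GI50.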 Active and inactive are the calls of the source. No stated cut-off is given here; in the data, active = GI50 up to about 1.1 µM and inactive = higher.
Tests used:
Assay in all cases: NCI-60 cell line screen, 48 h
A498 = test system: A498
CCRF-CEM = test system: CCRF-CEM
HOP-62 = test system: HOP-62
K562 = test system: K562
KM12 = test system: KM12
LOX IMVI = test system: LOX IMVI
M19-MEL = test system: M19-MEL
MOLT-4 = test system: MOLT-4
NCI-H460 = test system: NCI-H460
RPMI-8226 = test system: RPMI-8226
SF-268 = test system: SF-268
SK-MEL-5 = test system: SK-MEL-5
SW-620 = test system: SW-620
U-251 = test system: U-251
HCT-116 = test system: HCT-116
OVCAR-8 = test system: OVCAR-8
SNB-19 = test system: SNB-19
SR = test system: SR
MDA-MB-231 = test system: MDA-MB-231
PC-3 = test system: PC-3

Structure (SMILES) | GI50 (A498) | GI50 (CCRF-CEM) | GI50 (HOP-62) | GI50 (K562) | GI50 (KM12) | GI50 (LOX IMVI) | GI50 (M19-MEL) | GI50 (MOLT-4) | GI50 (NCI-H460) | GI50 (RPMI-8226) | GI50 (SF-268) | GI50 (SK-MEL-5) | GI50 (SW-620) | GI50 (U-251) | GI50 (HCT-116) | GI50 (OVCAR-8) | GI50 (SNB-19) | GI50 (SR) | GI50 (MDA-MB-231) | GI50 (PC-3)
O=C1[C@H]2ON(c3ccccc3)C(c3ccco3)[C@H]2C(=O)N1c1ccc(Cc2ccc(N3C(=O)[C@@H]4ON(c5ccccc5)C(c5ccco5)[C@@H]4C3=O)cc2)cc1 (stereo partly drawn) | > 100 µM (inactive) | > 100 µM (inactive) | > 100 µM (inactive) | > 100 µM (inactive) | > 100 µM (inactive) | > 100 µM (inactive) | > 100 µM (inactive) | > 100 µM (inactive) | > 100 µM (inactive) | > 100 µM (inactive) | > 100 µM (inactive) | > 100 µM (inactive) | > 100 µM (inactive) | > 100 µM (inactive) | – | – | – | – | – | –
CC(=O)OCCc1cccnc1/C=N/O | – | > 100 µM (inactive) | > 100 µM (inactive) | > 100 µM (inactive) | > 100 µM (inactive) | > 100 µM (inactive) | > 100 µM (inactive) | > 100 µM (inactive) | > 100 µM (inactive) | – | > 100 µM (inactive) | > 100 µM (inactive) | > 100 µM (inactive) | > 100 µM (inactive) | > 100 µM (inactive) | > 100 µM (inactive) | > 100 µM (inactive) | > 100 µM (inactive) | – | –
O=c1cc(-c2ccc(O)cc2)oc2cc(O)cc(O)c12 [APIGENIN] | – | 20.4 µM (inactive) | 43.6 µM (inactive) | 32.7 µM (inactive) | 23.1 µM (inactive) | 21.4 µM (inactive) | 33.5 µM (inactive) | 23 µM (inactive) | 31.4 µM (inactive) | 37.7 µM (inactive) | 27.5 µM (inactive) | 25.4 µM (inactive) | – | 22.6 µM (inactive) | 24.2 µM (inactive) | – | 29.7 µM (inactive) | 33.6 µM (inactive) | – | –
O=C(O)CC1CC=C[C@H]2c3cc4c(cc3C(=O)NC12)OCO4 (stereo partly drawn) | – | > 75 µM (inactive) | > 75 µM (inactive) | > 75 µM (inactive) | > 75 µM (inactive) | > 75 µM (inactive) | > 75 µM (inactive) | > 75 µM (inactive) | > 75 µM (inactive) | > 75 µM (inactive) | > 75 µM (inactive) | – | > 75 µM (inactive) | > 75 µM (inactive) | > 75 µM (inactive) | > 75 µM (inactive) | > 75 µM (inactive) | > 75 µM (inactive) | – | –
COc1cc(O)c(C(=O)/C=C/c2ccc(OC)c(OCc3ccccc3)c2)c(OC)c1 | – | 3.92 µM (inactive) | > 100 µM (inactive) | 5.93 µM (inactive) | 31 µM (inactive) | 33.7 µM (inactive) | > 100 µM (inactive) | 5.46 µM (inactive) | > 100 µM (inactive) | 5.86 µM (inactive) | – | > 100 µM (inactive) | 36.5 µM (inactive) | > 100 µM (inactive) | 4.55 µM (inactive) | 6.84 µM (inactive) | > 100 µM (inactive) | 4.08 µM (inactive) | – | –
O=C(CN1CCN(C(=O)OCc2ccccc2)CCN(CC(=O)N2CCCCC2)CCN(C(=O)OCc2ccccc2)CC1)N1CCCCC1 | 16.7 µM (inactive) | 6.44 µM (inactive) | 19.5 µM (inactive) | 5.4 µM (inactive) | 17.7 µM (inactive) | 14.5 µM (inactive) | – | 7.41 µM (inactive) | 12.4 µM (inactive) | 13.4 µM (inactive) | 15.8 µM (inactive) | 6.87 µM (inactive) | 19.6 µM (inactive) | 16.5 µM (inactive) | 4.88 µM (inactive) | 8.61 µM (inactive) | 19.7 µM (inactive) | 3.3 µM (inactive) | 14.2 µM (inactive) | 12.6 µM (inactive)
O=C(/C=C/c1ccc(Oc2cc(C(=O)/C=C/c3ccc(O)cc3)c(O)cc2O)cc1)c1ccc(O)cc1O [RHUSCHALCONE II] | 2.65 µM (inactive) | 2.51 µM (inactive) | 5.38 µM (inactive) | 3.47 µM (inactive) | 2.15 µM (inactive) | 5.47 µM (inactive) | – | 4.09 µM (inactive) | 7.89 µM (inactive) | 2.86 µM (inactive) | 4.83 µM (inactive) | 4.4 µM (inactive) | 4.82 µM (inactive) | 3.89 µM (inactive) | 2.25 µM (inactive) | 2.64 µM (inactive) | 6.89 µM (inactive) | 3.35 µM (inactive) | 5.08 µM (inactive) | 5.27 µM (inactive)
N#CC1C(=O)NC(=O)C1=O (stereo not drawn) | > 100 µM (inactive) | – | > 100 µM (inactive) | > 100 µM (inactive) | > 100 µM (inactive) | > 100 µM (inactive) | > 100 µM (inactive) | > 100 µM (inactive) | > 100 µM (inactive) | > 100 µM (inactive) | > 100 µM (inactive) | > 100 µM (inactive) | > 100 µM (inactive) | > 100 µM (inactive) | > 100 µM (inactive) | > 100 µM (inactive) | > 100 µM (inactive) | – | – | –
COc1cc(Br)cc2cc(-c3cn4c(n3)sc3ccccc34)c(=O)oc12 | 21.2 µM (inactive) | 20.4 µM (inactive) | 22.7 µM (inactive) | 13.6 µM (inactive) | 30.4 µM (inactive) | 18.4 µM (inactive) | – | 20.9 µM (inactive) | 33.7 µM (inactive) | 21.6 µM (inactive) | 20 µM (inactive) | 28.4 µM (inactive) | 20.8 µM (inactive) | 25.2 µM (inactive) | 21.3 µM (inactive) | 28.6 µM (inactive) | 32.7 µM (inactive) | 21.6 µM (inactive) | 21.2 µM (inactive) | 16.3 µM (inactive)
CC12CC(=O)OC(Cc3ccccc31)O2 (stereo not drawn) | – | > 100 µM (inactive) | > 100 µM (inactive) | > 100 µM (inactive) | > 100 µM (inactive) | > 100 µM (inactive) | > 100 µM (inactive) | > 100 µM (inactive) | > 100 µM (inactive) | > 100 µM (inactive) | > 100 µM (inactive) | – | > 100 µM (inactive) | > 100 µM (inactive) | > 100 µM (inactive) | > 100 µM (inactive) | > 100 µM (inactive) | > 100 µM (inactive) | – | –
CCN(CC)Cc1cc(/N=N\c2c(O)ccc3c(/N=N\c4ccc(O)c(CN(CC)CC)c4)c(O)ccc23)ccc1O | 13.3 µM (inactive) | 2.44 µM (inactive) | 2.79 µM (inactive) | 2.21 µM (inactive) | 1.18 µM (inactive) | 1.59 µM (inactive) | – | 1.13 µM (inactive) | 1.91 µM (inactive) | 1.68 µM (inactive) | 4.56 µM (inactive) | 2.47 µM (inactive) | 3.29 µM (inactive) | 3.48 µM (inactive) | 1.94 µM (inactive) | 2.12 µM (inactive) | 3.86 µM (inactive) | 0.993 µM (active) | 2.05 µM (inactive) | 5.11 µM (inactive)
Cc1nc2ccc(Cl)cc2c2c1CCS2 | 22 µM (inactive) | 46 µM (inactive) | > 100 µM (inactive) | 40.9 µM (inactive) | > 100 µM (inactive) | 38 µM (inactive) | – | 19.5 µM (inactive) | 52.2 µM (inactive) | 16.3 µM (inactive) | 56.5 µM (inactive) | 27.6 µM (inactive) | > 100 µM (inactive) | > 100 µM (inactive) | 41.1 µM (inactive) | 92 µM (inactive) | > 100 µM (inactive) | 40.9 µM (inactive) | 49.2 µM (inactive) | 36.6 µM (inactive)
CC(C)OCN1COCN/C1=N/C#N | > 100 µM (inactive) | – | > 100 µM (inactive) | > 100 µM (inactive) | > 100 µM (inactive) | – | > 100 µM (inactive) | > 100 µM (inactive) | > 100 µM (inactive) | – | > 100 µM (inactive) | > 100 µM (inactive) | 18.3 µM (inactive) | 42.2 µM (inactive) | > 100 µM (inactive) | > 100 µM (inactive) | > 100 µM (inactive) | > 100 µM (inactive) | – | –
Cc1cccc(CP(Cc2cccc(C)c2)CC2(Cp3c4ccccc4c4ccccc43)COC2)c1 | 7.41 µM (inactive) | 0.406 µM (active) | 66.7 µM (inactive) | 1.33 µM (inactive) | 2.51 µM (inactive) | 1.42 µM (inactive) | – | 0.662 µM (active) | 1.63 µM (inactive) | 1.02 µM (active) | 3.79 µM (inactive) | 2.55 µM (inactive) | 10.3 µM (inactive) | 0.47 µM (active) | 0.252 µM (active) | 1.78 µM (inactive) | 5.96 µM (inactive) | 1.15 µM (inactive) | 1.3 µM (inactive) | 0.935 µM (active)
O=CN/C=C/c1ccc(O)c(O)c1 | > 100 µM (inactive) | > 100 µM (inactive) | > 100 µM (inactive) | > 100 µM (inactive) | > 100 µM (inactive) | > 100 µM (inactive) | > 100 µM (inactive) | > 100 µM (inactive) | > 100 µM (inactive) | > 100 µM (inactive) | > 100 µM (inactive) | – | > 100 µM (inactive) | > 100 µM (inactive) | > 100 µM (inactive) | > 100 µM (inactive) | > 100 µM (inactive) | – | – | –
CCN(CC)C(=S)N/N=C(/c1ccccc1)c1ccccn1 | 0.311 µM (active) | 0.024 µM (active) | 0.292 µM (active) | 0.185 µM (active) | 0.0942 µM (active) | 0.2 µM (active) | – | < 0.0507 µM (active) | 0.0783 µM (active) | 0.11 µM (active) | 0.0256 µM (active) | 0.209 µM (active) | 0.121 µM (active) | 0.0995 µM (active) | 0.0454 µM (active) | 0.0362 µM (active) | 2.84 µM (inactive) | 0.106 µM (active) | 0.0265 µM (active) | 0.212 µM (active)

— ChEMBL document CHEMBL1201862, “PubChem BioAssay data set” (2004)
